In ChEMBL document CHEMBL4507293 (2021):

Assays:
[1] = tested on: Phosphatidylinositol 4,5-bisphosphate 3-kinase catalytic subunit alpha isoform (Homo sapiens), P42336 [H1047L]; conditions: Compound concentration 100.0 nM
[2] = molecular target: Phosphatidylinositol 5-phosphate 4-kinase type-2 gamma (Homo sapiens) (UniProt Q8TBX8); conditions: Compound concentration 100.0 nM
[3] = molecular target: Mu-type opioid receptor (Homo sapiens) (UniProt P35372); conditions: Compound concentration 10.0 uM
Chain of Mu-type opioid receptor (Homo sapiens) (P35372 whole entry): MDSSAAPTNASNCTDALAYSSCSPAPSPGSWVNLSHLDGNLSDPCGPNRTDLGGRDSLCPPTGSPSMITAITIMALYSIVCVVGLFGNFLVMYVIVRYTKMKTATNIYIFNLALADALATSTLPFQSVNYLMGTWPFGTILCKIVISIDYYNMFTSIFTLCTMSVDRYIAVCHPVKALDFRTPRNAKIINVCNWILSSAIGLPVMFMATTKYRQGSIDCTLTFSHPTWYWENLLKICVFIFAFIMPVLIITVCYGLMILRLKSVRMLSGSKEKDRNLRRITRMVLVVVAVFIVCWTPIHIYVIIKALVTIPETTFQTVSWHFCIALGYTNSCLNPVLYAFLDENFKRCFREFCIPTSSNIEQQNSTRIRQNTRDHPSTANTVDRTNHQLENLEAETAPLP

[4] = molecular target: Monoamine oxidase A (MAO-A) (Homo sapiens, UniProt P21397); assay: Inhibition of Monoamine Oxidase MAO-A at compound concentration of 10.0 uM in the Eurofins-Panlabs enzyme assay (Eurofins_assay_140010); design: substrate with concentration 50 uM Kynuramine, incubation time 60 min, incubation temperature 37 C; conditions: recombinant human MAO-A expressed in insect Hi5 cells, probe kynuramine, compound concentration 10 uM
Chain of Monoamine oxidase A (MAO-A) (P21397 whole entry): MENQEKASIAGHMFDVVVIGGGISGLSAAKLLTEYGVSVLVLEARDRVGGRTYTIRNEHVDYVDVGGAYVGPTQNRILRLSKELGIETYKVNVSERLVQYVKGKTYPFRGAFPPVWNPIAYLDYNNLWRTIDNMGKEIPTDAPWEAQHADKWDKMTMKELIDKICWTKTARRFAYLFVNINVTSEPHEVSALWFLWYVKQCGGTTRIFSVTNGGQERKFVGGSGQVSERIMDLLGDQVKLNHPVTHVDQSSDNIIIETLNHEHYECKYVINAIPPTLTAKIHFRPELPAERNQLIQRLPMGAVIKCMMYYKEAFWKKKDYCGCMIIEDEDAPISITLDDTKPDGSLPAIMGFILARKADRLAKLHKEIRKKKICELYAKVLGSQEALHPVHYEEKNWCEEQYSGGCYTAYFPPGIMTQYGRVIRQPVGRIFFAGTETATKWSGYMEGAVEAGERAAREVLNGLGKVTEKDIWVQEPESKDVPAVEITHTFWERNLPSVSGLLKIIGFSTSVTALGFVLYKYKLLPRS

[5] = molecular target: Caspase-3 (Homo sapiens) (UniProt P42574); assay: Peptidase, CASP3 (Caspase 3) Eurofins-Panlabs enzyme assay; conditions: Compound concentration 10.0 uM
Chain of Caspase-3 (Homo sapiens) (P42574 29-175 limits assumed): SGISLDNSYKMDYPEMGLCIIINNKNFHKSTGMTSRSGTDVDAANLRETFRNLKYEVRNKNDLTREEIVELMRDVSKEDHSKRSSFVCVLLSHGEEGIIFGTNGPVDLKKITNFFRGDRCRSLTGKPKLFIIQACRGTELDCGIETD
Chain of Caspase-3 (Homo sapiens) (P42574 176-277 limits assumed): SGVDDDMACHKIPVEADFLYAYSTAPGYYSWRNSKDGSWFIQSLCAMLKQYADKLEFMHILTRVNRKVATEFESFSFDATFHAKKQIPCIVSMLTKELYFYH

[6] = species: Rattus norvegicus; assay: GABAA, Ro-15-1788, Hippocampus Eurofins-Panlabs radioligand binding assay; design: ligand concentration 1 nM; conditions: Compound concentration 10.0 uM
[7] = molecular target: Adenosine receptor A1 (Homo sapiens) (UniProt P30542); conditions: Compound concentration 10.0 uM
Chain of Adenosine receptor A1 (Homo sapiens) (P30542 whole entry): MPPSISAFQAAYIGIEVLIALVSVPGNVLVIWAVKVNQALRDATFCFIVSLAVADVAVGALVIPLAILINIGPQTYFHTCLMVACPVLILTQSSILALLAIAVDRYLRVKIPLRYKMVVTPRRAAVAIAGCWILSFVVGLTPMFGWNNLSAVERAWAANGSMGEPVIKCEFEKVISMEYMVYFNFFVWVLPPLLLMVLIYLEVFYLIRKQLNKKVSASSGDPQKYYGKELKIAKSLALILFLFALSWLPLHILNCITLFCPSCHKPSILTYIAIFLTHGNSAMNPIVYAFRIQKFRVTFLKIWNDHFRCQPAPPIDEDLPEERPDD

[8] = molecular target: Monoamine oxidase B (MAO-B) (Homo sapiens, UniProt P27338); assay: Inhibition of Monoamine Oxidase MAO-B at compound concentration of 10.0 uM in the Eurofins-Panlabs enzyme assay (Eurofins_assay_140120); design: substrate with concentration 50 uM Kynuramine, incubation time 60 min, incubation temperature 37 C; conditions: recombinant human MAO-B expressed in insect Hi5 cells, probe kynuramine, compound concentration 10 uM
Chain of Monoamine oxidase B (MAO-B) (P27338 whole entry): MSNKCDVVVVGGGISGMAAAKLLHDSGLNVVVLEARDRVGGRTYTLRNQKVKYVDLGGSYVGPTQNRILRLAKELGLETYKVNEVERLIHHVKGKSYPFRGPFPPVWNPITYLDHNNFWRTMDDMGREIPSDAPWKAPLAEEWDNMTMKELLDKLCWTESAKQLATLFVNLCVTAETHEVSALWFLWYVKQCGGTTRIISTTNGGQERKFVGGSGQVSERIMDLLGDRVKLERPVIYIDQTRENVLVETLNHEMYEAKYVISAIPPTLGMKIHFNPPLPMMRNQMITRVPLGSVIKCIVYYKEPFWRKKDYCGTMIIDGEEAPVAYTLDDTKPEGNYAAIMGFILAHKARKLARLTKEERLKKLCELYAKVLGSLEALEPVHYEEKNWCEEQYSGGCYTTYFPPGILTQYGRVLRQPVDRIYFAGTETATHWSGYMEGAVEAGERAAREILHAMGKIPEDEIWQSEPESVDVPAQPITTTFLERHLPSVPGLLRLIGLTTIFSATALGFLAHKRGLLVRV

[9] = molecular target: GABA-A receptor; anion channel (Rattus norvegicus) (UniProt O09028+P15431+P18506+P18508+P19969+P20236+P23574+P23576+P28471+P28473+P30191+P62813+P63079+P63138+Q91ZM7+Q9ES14); conditions: Compound concentration 10.0 uM
[10] = molecular target: T1, Muscarinic acetylcholine receptor M4 (Homo sapiens) (UniProt P08173); conditions: Compound concentration 10.0 uM
T1 sequence (whole entry): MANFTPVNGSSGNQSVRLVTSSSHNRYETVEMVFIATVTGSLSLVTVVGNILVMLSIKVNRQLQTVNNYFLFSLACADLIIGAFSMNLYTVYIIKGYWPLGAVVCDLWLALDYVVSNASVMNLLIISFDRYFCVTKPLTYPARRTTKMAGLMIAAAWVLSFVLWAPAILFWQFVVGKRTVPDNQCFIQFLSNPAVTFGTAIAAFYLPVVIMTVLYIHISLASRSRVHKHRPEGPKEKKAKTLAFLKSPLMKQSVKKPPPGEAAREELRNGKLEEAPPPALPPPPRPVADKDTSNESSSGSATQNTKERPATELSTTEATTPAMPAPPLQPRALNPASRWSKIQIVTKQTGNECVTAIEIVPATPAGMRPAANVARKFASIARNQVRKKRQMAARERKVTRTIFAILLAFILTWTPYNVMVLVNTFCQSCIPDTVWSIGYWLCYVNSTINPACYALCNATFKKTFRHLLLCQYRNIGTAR

[11] = molecular target: Acetylcholine receptor subunit alpha (Homo sapiens) (UniProt P02708); assay: Inhibition of Nicotinic Acetylcholine D1, Bungarotoxin at 10 µM in the Eurofins-Panlabs radioligand binding assay (Eurofins_assay_258700); conditions: Compound concentration 10.0 uM
[12] = molecular target: T2, 5-hydroxytryptamine receptor 2C (Homo sapiens) (UniProt P28335); conditions: Compound concentration 10.0 uM
T2 sequence (whole entry): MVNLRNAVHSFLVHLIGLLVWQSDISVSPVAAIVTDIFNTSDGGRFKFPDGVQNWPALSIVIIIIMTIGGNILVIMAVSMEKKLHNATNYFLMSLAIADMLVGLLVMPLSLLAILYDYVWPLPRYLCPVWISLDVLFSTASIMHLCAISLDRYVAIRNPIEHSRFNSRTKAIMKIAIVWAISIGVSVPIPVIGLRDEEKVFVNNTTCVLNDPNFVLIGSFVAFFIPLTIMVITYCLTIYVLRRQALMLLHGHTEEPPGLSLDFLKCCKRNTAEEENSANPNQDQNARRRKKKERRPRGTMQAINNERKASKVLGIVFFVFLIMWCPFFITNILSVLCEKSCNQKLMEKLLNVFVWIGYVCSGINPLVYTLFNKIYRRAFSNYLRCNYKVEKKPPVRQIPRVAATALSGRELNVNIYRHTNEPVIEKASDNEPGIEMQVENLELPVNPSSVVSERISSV

[13] = molecular target: Progesterone receptor (Homo sapiens) (UniProt P06401); assay: Inhibition of Progesterone PR-B at 10 µM in the Eurofins-Panlabs radioligand binding assay (Eurofins_assay_268020); design: ligand concentration 1.4 nM; conditions: Compound concentration 10.0 uM
[14] = molecular target: Beta-3 adrenergic receptor (Homo sapiens) (UniProt P13945); conditions: Compound concentration 10.0 uM
Chain of Beta-3 adrenergic receptor (Homo sapiens) (P13945 whole entry, looked up): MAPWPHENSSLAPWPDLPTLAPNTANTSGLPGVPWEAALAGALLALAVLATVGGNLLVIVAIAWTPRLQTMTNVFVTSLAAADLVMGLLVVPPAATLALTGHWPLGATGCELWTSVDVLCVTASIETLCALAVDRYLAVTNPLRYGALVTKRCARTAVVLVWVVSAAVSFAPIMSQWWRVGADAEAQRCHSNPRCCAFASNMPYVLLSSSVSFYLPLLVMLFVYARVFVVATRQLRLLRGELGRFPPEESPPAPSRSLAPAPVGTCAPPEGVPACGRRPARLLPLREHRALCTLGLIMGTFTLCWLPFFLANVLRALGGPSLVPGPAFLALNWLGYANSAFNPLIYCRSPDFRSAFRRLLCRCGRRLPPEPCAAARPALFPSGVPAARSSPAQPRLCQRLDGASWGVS

[15] = molecular target: Caspase-9 (Homo sapiens) (UniProt P55211); assay: Peptidase, CASP9 (Caspase 9) Eurofins-Panlabs enzyme assay; design: substrate with concentration; conditions: Compound concentration 10.0 uM
[16] = molecular target: Estrogen receptor (Homo sapiens) (UniProt P03372); conditions: Compound concentration 10.0 uM
Chain of Estrogen receptor (Homo sapiens) (P03372 whole entry): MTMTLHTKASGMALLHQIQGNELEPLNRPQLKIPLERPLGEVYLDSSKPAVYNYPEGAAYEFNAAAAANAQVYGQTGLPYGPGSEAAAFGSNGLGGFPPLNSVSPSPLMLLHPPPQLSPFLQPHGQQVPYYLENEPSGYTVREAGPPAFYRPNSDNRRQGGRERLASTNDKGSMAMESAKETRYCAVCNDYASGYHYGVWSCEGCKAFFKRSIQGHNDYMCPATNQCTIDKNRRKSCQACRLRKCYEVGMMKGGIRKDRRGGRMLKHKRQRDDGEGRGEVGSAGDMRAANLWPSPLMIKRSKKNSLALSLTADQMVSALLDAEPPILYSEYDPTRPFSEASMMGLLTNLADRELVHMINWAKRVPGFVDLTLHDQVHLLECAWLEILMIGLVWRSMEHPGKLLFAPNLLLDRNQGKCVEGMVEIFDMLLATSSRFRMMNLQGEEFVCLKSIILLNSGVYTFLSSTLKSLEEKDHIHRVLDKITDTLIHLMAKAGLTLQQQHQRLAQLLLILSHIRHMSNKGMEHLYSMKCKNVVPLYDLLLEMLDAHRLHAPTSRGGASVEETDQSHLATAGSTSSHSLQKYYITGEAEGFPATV

[17] = molecular target: Glutamate receptor 2 (Homo sapiens) (UniProt P42262); conditions: Rattus norvegicus; Compound concentration 10.0 uM
[18] = molecular target: Prostaglandin E2 receptor EP1 subtype (Homo sapiens) (UniProt P34995); assay: Prostanoid EP1 Eurofins-Panlabs radioligand binding assay; conditions: Compound concentration 10.0 uM
Chain of Prostaglandin E2 receptor EP1 subtype (Homo sapiens) (P34995 whole entry): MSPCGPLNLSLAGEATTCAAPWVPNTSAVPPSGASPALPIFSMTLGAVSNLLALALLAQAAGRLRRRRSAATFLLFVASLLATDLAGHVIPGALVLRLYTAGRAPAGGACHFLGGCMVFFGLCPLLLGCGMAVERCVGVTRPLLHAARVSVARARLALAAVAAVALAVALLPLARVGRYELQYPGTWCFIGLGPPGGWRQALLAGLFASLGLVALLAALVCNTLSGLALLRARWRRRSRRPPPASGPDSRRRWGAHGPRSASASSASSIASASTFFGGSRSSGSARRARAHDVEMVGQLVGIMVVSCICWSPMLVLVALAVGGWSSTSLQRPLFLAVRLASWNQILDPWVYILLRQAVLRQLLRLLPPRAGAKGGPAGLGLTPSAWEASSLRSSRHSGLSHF

[19] = molecular target: 5-hydroxytryptamine receptor 1B (Homo sapiens) (UniProt P28222); assay: Inhibition of Serotonin (5-Hydroxytryptamine) 5-HT1B at 10 µM in the Eurofins-Panlabs radioligand binding assay (Eurofins_assay_271200); conditions: Compound concentration 10.0 uM
[20] = molecular target: T3, Muscarinic acetylcholine receptor M2 (Homo sapiens) (UniProt P08172); conditions: Compound concentration 10.0 uM
T3 sequence (whole entry): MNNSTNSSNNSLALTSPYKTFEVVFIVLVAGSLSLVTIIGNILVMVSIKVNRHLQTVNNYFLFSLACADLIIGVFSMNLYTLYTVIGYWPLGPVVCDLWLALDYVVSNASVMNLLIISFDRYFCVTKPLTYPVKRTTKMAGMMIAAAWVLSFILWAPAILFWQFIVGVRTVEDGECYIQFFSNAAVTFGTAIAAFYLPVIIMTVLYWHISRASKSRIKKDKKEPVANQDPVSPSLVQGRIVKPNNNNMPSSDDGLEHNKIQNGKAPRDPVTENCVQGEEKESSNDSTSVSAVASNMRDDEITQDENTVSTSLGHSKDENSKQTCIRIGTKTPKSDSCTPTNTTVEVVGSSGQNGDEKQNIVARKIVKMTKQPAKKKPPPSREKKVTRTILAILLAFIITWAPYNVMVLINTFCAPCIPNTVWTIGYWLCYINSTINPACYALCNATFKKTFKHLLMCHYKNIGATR

[21] = molecular target: Melanin-concentrating hormone receptor 1 (Homo sapiens) (UniProt Q99705); assay: Melanin-Concentrating Hormone MCH1 (SLC1) Eurofins-Panlabs radioligand binding assay; design: ligand concentration 0.05 nM; conditions: Compound concentration 10.0 uM
Chain of Melanin-concentrating hormone receptor 1 (Homo sapiens) (Q99705 whole entry): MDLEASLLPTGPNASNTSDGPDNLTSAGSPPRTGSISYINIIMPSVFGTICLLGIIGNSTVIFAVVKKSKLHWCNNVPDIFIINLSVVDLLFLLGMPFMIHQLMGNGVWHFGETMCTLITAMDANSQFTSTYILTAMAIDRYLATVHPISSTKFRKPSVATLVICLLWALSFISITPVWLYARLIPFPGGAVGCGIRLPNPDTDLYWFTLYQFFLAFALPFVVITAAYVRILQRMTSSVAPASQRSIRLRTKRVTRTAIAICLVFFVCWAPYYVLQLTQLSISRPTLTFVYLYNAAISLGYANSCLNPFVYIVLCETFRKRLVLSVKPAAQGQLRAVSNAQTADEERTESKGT

Chain of Phosphatidylinositol 4,5-bisphosphate 3-kinase catalytic subunit alpha isoform (Homo sapiens), P42336 [H1047L] (P42336 whole entry H1047L, canonical isoform): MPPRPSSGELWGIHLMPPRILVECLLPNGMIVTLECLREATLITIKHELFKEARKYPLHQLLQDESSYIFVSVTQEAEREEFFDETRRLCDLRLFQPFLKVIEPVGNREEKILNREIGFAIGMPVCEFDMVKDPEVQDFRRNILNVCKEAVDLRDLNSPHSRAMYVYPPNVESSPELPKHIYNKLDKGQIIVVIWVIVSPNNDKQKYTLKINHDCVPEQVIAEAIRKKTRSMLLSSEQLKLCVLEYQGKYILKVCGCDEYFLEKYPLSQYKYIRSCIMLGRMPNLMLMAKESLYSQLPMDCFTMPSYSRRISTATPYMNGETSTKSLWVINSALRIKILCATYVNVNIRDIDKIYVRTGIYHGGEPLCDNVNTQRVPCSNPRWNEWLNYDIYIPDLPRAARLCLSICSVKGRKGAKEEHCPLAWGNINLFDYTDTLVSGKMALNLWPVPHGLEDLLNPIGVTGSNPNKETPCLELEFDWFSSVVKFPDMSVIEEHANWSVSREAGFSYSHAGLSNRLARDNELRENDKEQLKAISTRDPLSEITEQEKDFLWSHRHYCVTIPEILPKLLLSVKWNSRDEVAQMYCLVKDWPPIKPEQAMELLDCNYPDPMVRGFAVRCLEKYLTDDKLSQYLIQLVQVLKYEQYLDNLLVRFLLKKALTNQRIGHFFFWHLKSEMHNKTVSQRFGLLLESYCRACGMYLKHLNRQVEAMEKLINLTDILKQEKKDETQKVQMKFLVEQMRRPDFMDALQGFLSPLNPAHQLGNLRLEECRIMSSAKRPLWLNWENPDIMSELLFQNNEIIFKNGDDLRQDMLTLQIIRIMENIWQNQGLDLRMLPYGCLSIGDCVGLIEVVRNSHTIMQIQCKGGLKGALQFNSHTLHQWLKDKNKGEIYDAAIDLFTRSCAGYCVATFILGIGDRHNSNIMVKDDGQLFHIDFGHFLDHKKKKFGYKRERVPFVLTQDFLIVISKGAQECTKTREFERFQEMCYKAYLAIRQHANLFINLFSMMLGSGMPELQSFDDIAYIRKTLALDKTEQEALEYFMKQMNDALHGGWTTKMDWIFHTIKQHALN

CC(C)CC(=O)N1CCc2nc(-c3ccc(Br)cc3)nc(N(C)Cc3ccccc3)c2C1 [THPP-1-NC]
inactive: residual activity [1] 100% | residual activity [2] 96%

COCCOc1nc(-c2ccc(Cl)nc2)nc2c1CN(C(=O)c1ncn3ccccc13)CC2 [THPP-1]
42% (not active): inhibition at 60 min, 10 µM [4]
32% (not active): inhibition at 60 min, 10 µM [8]
inactive: inhibition [3] 2% | inhibition [5] -1% | inhibition [6] 37% | inhibition [7] 37% | inhibition [9] 4% | inhibition [10] 5% | inhibition [11] -3% | inhibition [12] 22% | inhibition [13] 12% | inhibition [14] 1% | inhibition [15] -5% | inhibition [16] -1% | inhibition [17] -10% | inhibition [18] -1% | inhibition [19] 7% | inhibition [20] 5% | inhibition [21] 4%
